According to patent publication US9624246B2, “Pyridazinone macrocycles as IRAK inhibitors and uses thereof” (Merck Patent GmbH, priority 2015, dated 2017):

Legend:
[1] = biological target: human purified recombinant IRAK1 (His-TEV-IRAK1 (194-712)) (Homo sapiens (Human), UniProt P51617); assay: IRAK1 enzymatic assay (ADP-Glo luminescence); type: biochemical; conditions: ATP 1 μM, 2 h at RT
Procedure: IRAK1 is a human purified recombinant enzyme (His-TEV-IRAK1 (194-712))
In this assay, IRAK1 hydrolyses ATP and autophosphorylates. Measurement of IRAK-1 inhibition is performed in 384-well format based on luminescence assay (ADP-Glo™ Kinase Assay from Promega). Purified human recombinant IRAK1 (0.3 μg/ml) and serial diluted compounds in DMSO (range of concentration from 10 μM to 0.5 nM) or controls (1% DMSO) are incubated for 15 minutes at RT in assay buffer containing 50 mM Hepes pH 7.0, Fatty acid-free BSA 0.1%, Dithiothreitol (DTT) 2 mM, MgCl2 10 mM, EGTA 0.5 mM, Triton X-100 0.01%. The kinase reaction is then initiated by the addition of ATP at a concentration of 1 μM. After 2 hours of incubation at RT, the reaction is stopped and the unconsumed ATP depleted by the addition of ADP-Glo™ Reagent according to supplier instructions. After 40 minutes of incubation at RT, the Kinase Detection Reagent is then added to the assay plate according to supplier instructions. After 20 minutes of incubation at RT, the luminescence signal is measured with a luminometer (PerkinElmer Envision or equivalent reader).

[2] = biological target: human purified recombinant IRAK4 (His-TEV-IRAK4 (1-460)) (Homo sapiens (Human), UniProt Q9NWZ3); assay: IRAK4 enzymatic assay (ADP-Glo luminescence); type: biochemical; conditions: ATP 2 μM, STK1-biotin peptide 300 nM, 2 h at RT
Procedure: IRAK4 is a human purified recombinant enzyme (His-TEV-IRAK4 (1-460)).
In this assay, IRAK4 hydrolyses ATP, autophosphorylates and phosphorylates a Serine/Threonine generic peptidic substrate (STK: 61ST1BLC from CisBio International). Measurement of IRAK-4 inhibition is performed in 384-well format based on a luminescence assay (ADP-Glo™ Kinase Assay from Promega). Purified human recombinant IRAK4 (0.3 μg/ml) and serial diluted compounds in DMSO (range of concentration from 10 μM to 0.5 nM) or controls (1% DMSO) are incubated for 15 minutes at RT in assay buffer containing 50 mM Hepes pH 7.0, Fatty acid-free BSA 0.1%, Dithiothreitol (DTT) 2 mM, MgCl2 10 mM, EGTA 0.5 mM, Triton X-100 0.01%, MnCl2 5 mM. The kinase reaction is then initiated by the addition of ATP (2 μM) and the peptidic substrate STK1-biotin peptide (300 nM). After 2 hours of incubation at RT, the reaction is stopped and the unconsumed ATP depleted by the addition of ADP-Glo™ Reagent according to supplier instructions. After 40 minutes of incubation at RT, the Kinase Detection Reagent is then added to the assay plate according to supplier instructions. After 20 minutes of incubation at RT, the luminescence signal is measured with a plate-reading luminometer (PerkinElmer Envision or equivalent reader).

Chain of human purified recombinant IRAK1 (His-TEV-IRAK1 (194-712)) (P51617 194-712): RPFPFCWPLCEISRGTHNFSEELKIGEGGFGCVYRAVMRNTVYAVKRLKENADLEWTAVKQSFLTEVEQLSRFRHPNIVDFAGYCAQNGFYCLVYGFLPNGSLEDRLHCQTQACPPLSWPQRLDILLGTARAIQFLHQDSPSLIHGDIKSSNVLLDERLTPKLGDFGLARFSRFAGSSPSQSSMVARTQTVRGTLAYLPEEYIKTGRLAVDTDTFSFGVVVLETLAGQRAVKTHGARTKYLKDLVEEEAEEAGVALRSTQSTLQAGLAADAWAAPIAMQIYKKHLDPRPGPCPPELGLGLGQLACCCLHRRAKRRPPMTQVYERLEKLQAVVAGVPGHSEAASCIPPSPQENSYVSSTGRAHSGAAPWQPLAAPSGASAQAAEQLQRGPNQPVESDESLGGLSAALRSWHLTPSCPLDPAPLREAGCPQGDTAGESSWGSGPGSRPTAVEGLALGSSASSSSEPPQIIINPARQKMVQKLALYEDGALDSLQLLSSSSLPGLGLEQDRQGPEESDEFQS
Chain of human purified recombinant IRAK4 (His-TEV-IRAK4 (1-460)) (Q9NWZ3 whole entry): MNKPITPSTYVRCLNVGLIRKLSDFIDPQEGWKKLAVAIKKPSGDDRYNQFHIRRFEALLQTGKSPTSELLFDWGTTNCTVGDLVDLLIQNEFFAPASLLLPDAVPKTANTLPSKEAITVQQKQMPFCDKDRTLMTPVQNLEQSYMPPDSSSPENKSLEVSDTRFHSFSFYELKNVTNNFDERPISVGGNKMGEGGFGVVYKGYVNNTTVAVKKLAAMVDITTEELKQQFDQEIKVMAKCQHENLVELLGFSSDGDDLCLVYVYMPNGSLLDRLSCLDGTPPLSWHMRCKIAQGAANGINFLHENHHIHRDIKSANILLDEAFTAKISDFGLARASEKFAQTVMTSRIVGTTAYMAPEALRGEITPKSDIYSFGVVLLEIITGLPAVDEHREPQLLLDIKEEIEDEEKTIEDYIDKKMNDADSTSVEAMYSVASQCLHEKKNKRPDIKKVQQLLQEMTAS

| SMILES | IC50 [1] | IC50 [2] |
| --- | --- | --- |
| Cn1cc2c(n1)C(=O)NCC(O)COc1ccc(=O)n(n1)Cc1cccc(c1)C(=O)N2 (stereo not drawn) [Compound 12, 18-hydroxy-12-methyl-20-oxa-1,9,12,13,16,25-hexaazatetracyclo[19.3.1.1^3,7.0^10,14]hexacosa-3,5,7(26),10,13,21(25),22-heptaene-8,15,24-trione] | 1000 to 5000 nM | < 100 nM |
| O=C1Nc2cn(C3CCOCC3)nc2C(=O)NCCCOc2ccc(=O)n(n2)Cc2cccc1n2 [Compound 9, 12-(oxan-4-yl)-20-oxa-1,9,12,13,16,25,26-heptaazatetracyclo[19.3.1.1^3,7.0^10,14]hexacosa-3,5,7(26),10,13,21(25),22-heptaene-8,15,24-trione] | > 5000 nM | < 100 nM |
| O=C1Nc2cn(C3CCOCC3)nc2C(=O)NCC(O)COc2ccc(=O)n(n2)Cc2cccc1c2 (stereo not drawn) [Compound 11, 18-hydroxy-12-(oxan-4-yl)-20-oxa-1,9,12,13,16,25-hexaazatetracyclo[19.3.1.1^3,7.0^10,14]hexacoa-3,5,7(26),10,13,21(25),22-heptaene-8,15,24-trione] | 100 to 1000 nM | < 100 nM |
| Cn1cc2c(n1)C(=O)NCCCOc1ccc(=O)n(n1)Cc1cccc(n1)C(=O)N2 [Compound 8, 12-methyl-20-oxa-1,9,12,13,16,25,26-heptaazatetracyclo[19.3.1.1^3,70^10,14]hexacosa-3,5,7(26),10,13,21(25),22-heptaene-8,15,24-trione] | > 5000 nM | < 100 nM |
| CC(C)(C)n1cc2c(n1)C(=O)NCCCOc1ccc(=O)n(n1)Cc1cccc(c1)C(=O)N2 [Compound 7, 12-tert-butyl-20-oxa-1,9,12,13,16,25-hexaazatetracyclo[19.3.1.1^3,7.0^10,14]hexacosa-3,5,7(26),10,13,21(25),22-heptaene-8,15,24-trione] | 100 to 1000 nM | < 100 nM |
| CC(C)(C)n1cc2c(n1)C(=O)NCCCOc1ccc(=O)n(n1)Cc1cccc(n1)C(=O)N2 [Compound 10, 12-tert-butyl-20-oxa-1,9,12,13,16,25,26-heptaazatetracyclo[19.3.1.1^3,7.0^10,14]hexacosa-3,5,7(26),10,13,21(25),22-heptaene-8,15,24-trione] | – | 1000 to 5000 nM |
| O=C1Nc2cn(C3CCOCC3)nc2C(=O)NCCCOc2ccc(=O)n(n2)Cc2cccc1c2 [Compound 6, 12-(oxan-4-yl)-20-oxa-1,9,12,13,16,25-hexaazatetracyclo[19.3.1.1^3,7.0^10,14]hexacosa-3,5,7(26),10,13,21(25),22-heptaene-8,15,24-trione] | 100 to 1000 nM | < 100 nM |

The remaining lines, values ahead:

| IC50 [1] | IC50 [2] | SMILES |
| --- | --- | --- |
| 100 to 1000 nM | < 100 nM | Cn1cc2c(n1)C(=O)NCc1cc(ccn1)-c1ccc(=O)n(n1)Cc1cccc(c1)C(=O)N2 [Compound 13, 17-methyl-6,14,17,18,21,24,29-heptaazapentacyclo[21.3.1.1^2,6.1^8,12.0^15,19]nonacosa-1(27),2(29),3,8,10,12(28),15,18,23,25-decaene-5,13,20-trione] |
| < 100 nM | < 100 nM | Cn1cc2c(n1)C(=O)NCCn1cc(cn1)-c1ccc(=O)n(n1)Cc1cccc(c1)C(=O)N2 [Compound 2, 12-methyl-4,5,8,11,12,15,23,27-octaazapentacyclo[21.3.1.1^2,5.1^17,210^10,14]nonacosa-1(27),2(29) 3,10,13,17(28),18,20,25-nonaene-9,16,24-trione] |
| > 5000 nM | > 5000 nM | Cc1cc2n(n1)CCc1cccc(c1)-c1ccc(=O)n(n1)Cc1cccc(c1)C(=O)N2 [Compound 15, 17-methyl-6,14,18,19,28-pentaazapentacyclo[20.3.1.1^2,6.1^8,12.0^15,19]octacosa-1(26),2(28),3,8,10,12(27)15,17,22,24-decaene-5,13-dione] |
| 100 to 1000 nM | < 100 nM | Cn1cc2c(n1)C(=O)NCc1cncc(c1)-c1ccc(=O)n(n1)Cc1cccc(c1)C(=O)N2 [Compound 3, 17-methyl-6,14,17,18,21,25,29-heptaazapentacyclo[21.3.1.1^2,61^8,12.0^15,19]nonacosa-1(27),2(29), 3,8,10,12(28),15,18,23,25-decaene-5,13,20-trione] |
| > 5000 nM | > 5000 nM | Cn1cc2c(n1)C(=O)NCCOc1ccc(=O)n(n1)Cc1cccc(c1)C(=O)N2 [Compound 4, 12-methyl-19-oxa-1,9,12,13,16,24-hexaazatetracyclo[18.3.1.1^3,7.0^10,14]pentacosa-3,5,7(25),10,13,20(24),21-heptaene-8,15,23-trione] |
| 100 to 1000 nM | < 100 nM | Cn1cc2c(n1)C(=O)NCCc1cccc(c1)-c1ccc(=O)n(n1)Cc1cccc(c1)C(=O)N2 [Compound 14, 17-methyl-6,14,17,18,21,30-hexaazapentacyclo[22.3.1.1^2,6.1^8,12.0^15,19]triaconta-1(28),2(30),3,8,10,12(29),15,18,24,26-decaene-5,13,20-trione] |
| 100 to 1000 nM | < 100 nM | Cn1cc2c(n1)C(=O)NCCCOc1ccc(=O)n(n1)Cc1cccc(c1)C(=O)N2 [Compound 1, 12-methyl-20-oxa-1,9,12,13,16,25-hexaazatetracyclo[19.3.1.1^3,70^10,14]hexacosa-3,5,7(26),10,13,21(25),22-heptaene-8,15,24-trione] |
